Reference: US8580784B2, “Method for treating a disease related to the glucocorticoid receptor” (Santen Pharmaceutical Co., Ltd., priority 2006, dated 2013)

Molecular target: T1, Recombinant human GR (Homo sapiens, UniProt P04150)
T1 construct: purchased Invitrogen P2816
T1 sequence (P04150 1-777): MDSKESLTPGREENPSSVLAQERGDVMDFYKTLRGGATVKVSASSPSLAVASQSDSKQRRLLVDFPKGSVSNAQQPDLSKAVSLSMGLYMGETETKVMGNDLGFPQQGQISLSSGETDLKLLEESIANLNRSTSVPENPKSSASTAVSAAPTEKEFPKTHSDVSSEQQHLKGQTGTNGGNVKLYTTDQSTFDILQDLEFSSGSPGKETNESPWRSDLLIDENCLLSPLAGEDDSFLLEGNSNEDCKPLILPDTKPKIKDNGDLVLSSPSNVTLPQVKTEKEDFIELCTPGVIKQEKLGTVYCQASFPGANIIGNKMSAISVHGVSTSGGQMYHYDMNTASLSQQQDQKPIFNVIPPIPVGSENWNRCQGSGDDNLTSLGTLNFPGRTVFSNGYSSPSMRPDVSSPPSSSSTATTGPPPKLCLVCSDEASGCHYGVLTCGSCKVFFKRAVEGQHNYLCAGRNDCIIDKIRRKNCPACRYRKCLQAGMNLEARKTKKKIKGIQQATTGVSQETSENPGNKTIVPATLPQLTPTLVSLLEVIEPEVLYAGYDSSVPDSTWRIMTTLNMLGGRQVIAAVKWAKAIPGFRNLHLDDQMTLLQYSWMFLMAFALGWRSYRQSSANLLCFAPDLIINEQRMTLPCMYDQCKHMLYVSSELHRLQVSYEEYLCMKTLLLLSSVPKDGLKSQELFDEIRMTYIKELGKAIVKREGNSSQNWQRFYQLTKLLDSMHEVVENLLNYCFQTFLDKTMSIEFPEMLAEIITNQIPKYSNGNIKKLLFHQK
Assay: Evaluation test for binding activity to glucocorticoid receptor: receptor competitor assay by fluorescence polarization (Invitrogen GR competitor assay kit, cat No. P2816)
Details: 20 μM test compound solution, 10 μL per well plus 5 μL 4×GS1 and 5 μL 4×GR solution; room temperature 2 to 4 hours; a ratio of 100% or more is indicated by 100%
Protocol: A detailed explanation of this matter will be described in the section of “Pharmacological Test” in Examples described below. In order to find the usefulness of the present compound as a pharmaceutical, a glucocorticoid receptor competitor assay was carried out by a fluorescence polarization method by using a glucocorticoid receptor competitor assay kit (manufactured by Invitrogen, cat No. P2816) to study the glucocorticoid receptor binding activity of the present compound.
1. Evaluation Test for Binding Activity to Glucocorticoid Receptor (hereinafter referred to as “GR”)
In order to evaluate a binding activity to GR, a receptor competitor assay was carried out by a fluorescence polarization method. In the assay, a GR competitor assay kit (manufactured by Invitrogen, cat No. P2816) was used, and a procedure was carried out according to the protocol attached to the kit. Hereinafter, the specific method will be described.
(Preparation of Reagents)
GR screening buffer: A buffer containing 10 mM potassium phosphate (pH 7.4), 20 mM sodium molybdate (Na2MoO4), 0.1 mM ethylene diamine tetraacetic acid (EDTA), 5 mM dithiothreitol (DTT), 0.1 mM stabilizing peptide and 2% dimethylsulfoxide was prepared.
4×GS1 solution: Fluormone™ GS1, which is a fluorescent glucocorticoid ligand, was diluted with GR screening buffer, whereby a 4 nM solution was prepared.
4×GR solution: Recombinant human GR was diluted with GR screening buffer, whereby a 16 nM solution was prepared.
(Preparation of Test Compound Solution)
After a test compound was dissolved in dimethylsulfoxide, the resulting solution was diluted with GR screening buffer, whereby a 20 μM test compound solution was prepared.
(Test Method and Measurement Method)
1) The test compound solution was added in an amount of 10 μL into each well of a 384-well plate, and then, 4×GS1 solution and 4×GR solution were added in an amount of 5 μL into each well, respectively.
2) The plate was incubated in a dark place at room temperature for 2 to 4 hours.
3) By using a multimode plate reader, Analyst™ HT (manufactured by LJL Biosystems), fluorescence polarization of each well was measured. As the blank, a well containing GR screening buffer in place of the test compound and 4×GS1 solution was used.
4) The same procedure as that in the above 1) to 3) was carried out except that GR screening buffer was used in place of the test compound solution, and the obtained result was taken as the negative control.
5) The same procedure as that in the above 1) to 3) was carried out except that 2 mM dexamethasone was used in place of the test compound solution, and the obtained result was taken as the positive control.
(Calculation Equation of GR Binding Ratio)
A GR binding ratio (%) was calculated from the following equation. GR binding ratio(%)=100×[1−(fluorescence polarization of test compound solution−fluorescence polarization of positive control solution)/(fluorescence polarization of negative control solution−fluorescence polarization of positive control solution)] (Test Results and Discussion)

Compound | inhibition at 20 µM (stock) | inhibition at 20 µM
COc1ccccc1NCc1c(-c2ccc(OC(=O)c3ccsc3)cc2OC)ccc2c1C(C)=CC(C)(C)N2 [Compound 1-7, 5-(2-Methoxyphenylaminomethyl)-6-[2-methoxy-4-(thiophen-3-ylcarbonyloxy)phenyl]-2,2,4-trimethyl-1,2-dihydroquinoline] | 95% | 
COc1cc(OC(=O)N2CCOCC2)ccc1-c1ccc2c(c1CNc1cc(F)ccc1C)C(C)=CC(C)(C)N2 [Compound 1-45, 5-(5-Fluoro-2-methylphenylaminomethyl)-6-[2-methoxy-4-(morpholin-4-ylcarbonyloxy)phenyl]-2,2,4-trimethyl-1,2-dihydroquinoline] | 100% | 
COc1cc(OC(=O)c2cccnc2OC)ccc1-c1ccc2c(c1CNc1cc(F)ccc1C)C(C)=CC(C)(C)N2 [Compound 1-41, 5-(5-Fluoro-2-methylphenylaminomethyl)-6-[2-methoxy-4-(2-methoxypyridin-3-ylcarbonyloxy)phenyl]-2,2,4-trimethyl-1,2-dihydroquinoline] | 100% | 
COc1ccccc1NCc1c(-c2ccc(OC(=O)Nc3cccnc3)cc2OC)ccc2c1C(C)=CC(C)(C)N2 [Compound 4-3, 5-(2-Methoxyphenylaminomethyl)-6-[2-methoxy-4-(pyridin-3-ylaminocarbonyloxy)phenyl]-2,2,4-trimethyl-1,2-dihydroquioline] |  | 91%
COc1cc(OC(=O)c2ccco2)ccc1-c1ccc2c(c1CNc1cc(F)ccc1C)C(C)=CC(C)(C)N2 [Compound 1-17, 5-(5-Fluoro-2-methylphenylaminomethyl)-6-[4-(furan-2-ylcarbonyloxy)-2-methoxyphenyl]-2,2,4-trimethyl-1,2-dihydroquinoline] | 99% | 
COc1ccccc1NCc1c(-c2ccc(OC(=O)c3ccc(F)cc3)cc2OC)ccc2c1C(C)=CC(C)(C)N2 [Compound 1-23, 6-[4-(4-Fluorobenzoyloxy)-2-methoxyphenyl]-5-(2-methoxyphenylaminomethyl)-2,2,4-trimethyl-1,2-dihydroquinoline] | 86% | 
COc1ccccc1NCc1c(-c2ccc(OC(=O)c3cccc(C(C)=O)c3)cc2OC)ccc2c1C(C)=CC(C)(C)N2 [Compound 1-27, 6-[4-(3-Acetylbenzoyloxy)-2-methoxyphenyl]-5-(2-methoxyphenylaminomethyl)-2,2,4-trimethyl-1,2-dihydroquinoline] | 87% | 
CCCS(=O)(=O)Oc1ccc(-c2ccc3c(c2CNc2cc(F)ccc2C)C(C)=CC(C)(C)N3)c(OC)c1 [Compound 2-6, 5-(5-Fluoro-2-methylphenylaminomethyl)-6-(2-methoxy-4-propylsulfonyloxyphenyl)-2,2,4-trimethyl-1,2-dihydroquioline] | 100% | 
COc1ccccc1NCc1c(-c2ccc(OC(=O)c3ccccc3SC)cc2OC)ccc2c1C(C)=CC(C)(C)N2 [Compound 1-26, 6-[2-Methoxy-4-(2-methylthiobenzoyloxy)phenyl]-5-(2-methoxyphenylaminomethyl)-2,2,4-trimethyl-1,2-dihydroquinoline] | 90% | 
COc1cc(OS(C)(=O)=O)ccc1-c1ccc2c(c1CNc1cc(F)ccc1C)C(C)=CC(C)(C)N2 [Compound 2-11, 5-(5-Fluoro-2-methylphenylaminomethyl)-6-(2-methoxy-4-methylsulfonyloxyphenyl)-2,2,4-trimethyl-1,2-dihydroquioline] | 100% | 
COc1ccccc1NCc1c(-c2ccc(OC(=O)c3ccccc3F)cc2OC)ccc2c1C(C)=CC(C)(C)N2 [Compound 1-12, 6-[4-(2-Fluorobenzoyloxy)-2-methoxyphenyl]-5-(2-methoxyphenylaminomethyl)-2,2,4-trimethyl-1,2-dihydroquinoline] | 99% | 
COc1ccccc1NCc1c(-c2ccc(OS(=O)(=O)C3CCCC3)cc2OC)ccc2c1C(C)=CC(C)(C)N2 [Compound 2-10, 6-(4-Cyclopentylsulfonyloxy-2-methoxyphenyl)-5-(2-methoxyphenylaminomethyl)-2,2,4-trimethyl-1,2-dihydroquioline] | 100% | 
COc1ccccc1NCc1c(-c2ccc(OC(=O)N3CCOCC3)cc2OC)ccc2c1C(C)=CC(C)(C)N2 [Compound 1-44, 6-[2-Methoxy-4-(morpholin-4-ylcarbonyloxy)phenyl]-5-(2-methoxyphenylaminomethyl)-2,2,4-trimethyl-1,2-dihydroquinoline] | 96% | 
COc1ccccc1NCc1c(-c2ccc(OS(=O)(=O)C(C)C)cc2OC)ccc2c1C(C)=CC(C)(C)N2 [Compound 2-2, 6-(4-Isopropylsulfonyloxy-2-methoxyphenyl)-5-(2-methoxyphenylaminomethyl)-2,2,4-trimethyl-1,2-dihydroquioline] | 100% | 
COc1ccccc1NCc1c(-c2ccc(OC(=O)c3ccoc3)cc2OC)ccc2c1C(C)=CC(C)(C)N2 [Compound 1-6, 6-[4-(Furan-3-ylcarbonyloxy)-2-methoxyphenyl]-5-(2-methoxyphenylaminomethyl)-2,2,4-trimethyl-1,2-dihydroquinoline] | 97% | 
COc1ccccc1NCc1c(-c2ccc(OC(=O)c3sccc3Cl)cc2OC)ccc2c1C(C)=CC(C)(C)N2 [Compound 1-28, 6-[4-(3-Chlorothiophen-2-ylcarbonyloxy)-2-methoxyphenyl]-5-(2-methoxyphenylaminomethyl)-2,2,4-trimethyl-1,2-dihydroquinoline] | 88% | 
CCCS(=O)(=O)Oc1ccc(-c2ccc3c(c2CNc2ccccc2OC)C(C)=CC(C)(C)N3)c(OC)c1 [Compound 2-1, 5-(2-Methoxyphenylaminomethyl)-6-(2-methoxy-4-propylsulfonyloxyphenyl)-2,2,4-trimethyl-1,2-dihydroquioline] |  | 100%
COc1ccccc1NCc1c(-c2ccc(OC(=O)c3ccccc3Cl)cc2OC)ccc2c1C(C)=CC(C)(C)N2 [Compound 1-10, 6-[4-(2-Chlorobenzoyloxy)-2-methoxyphenyl]-5-(2-methoxyphenylaminomethyl)-2,2,4-trimethyl-1,2-dihydroquinoline] | 93% | 
COc1cc(OC(=O)c2cccnc2)ccc1-c1ccc2c(c1CNc1cc(F)ccc1C)C(C)=CC(C)(C)N2 [Compound 1-16, 5-(5-Fluoro-2-methylphenylaminomethyl)-6-[2-methoxy-4-(pyridin-3-ylcarbonyloxy)phenyl]-2,2,4-trimethyl-1,2-dihydroquinoline] | 100% | 
COc1ccccc1NCc1c(-c2ccc(OC(=O)c3ccccc3OC)cc2OC)ccc2c1C(C)=CC(C)(C)N2 [Compound 1-4, 6-[2-Methoxy-4-(2-methoxybenzoyloxy)phenyl]-5-(2-methoxyphenylaminomethyl)-2,2,4-trimethyl-1,2-dihydroquinoline] | 95% | 
COc1ccccc1NCc1c(-c2ccc(OS(C)(=O)=O)cc2OC)ccc2c1C(C)=CC(C)(C)N2 [Compound 2-5, 6-(2-Methoxy-4-methylsulfonyloxyphenyl)-5-(2-methoxyphenylaminomethyl)-2,2,4-trimethyl-1,2-dihydroquioline] | 93% | 
